Source: patent US20020155443A1, “Metal binding DNA interactive compounds” (priority 2000, published 2002)

Experiments:
Form I DNA = experiment: Cleavage of Form I DNA under mildly alkaline conditions; format: biochemical; conditions: mildly alkaline (pH 8.5) conditions
Excerpt: It is believed that the DNA damage due to 2.12 is insensitive to either the addition of radical scavengers or the exclusion of oxygen. Additionally, treatment of a methanolic solution of 2.12 with aqueous NaOH led to the production of the bis(enol ether) 2.13 as depicted in FIG. 4.

[1] = system: B16 murine melanoma cells; experiment: Growth inhibition of B16 murine melanoma cells, MTT assay; format: cell-based; conditions: Mus musculus, B16, read-out: IC50, growth inhibition
Method: The growth inhibitory activities of bis(propargylic) sulfone crown ethers 2.47 and 2.48 against B16 murine melanoma cells were determined calorimetrically with an MTT assay conducted by the Institute for Drug Development at the Cancer Research and Therapy Center in San Antonio, Tex.

Work on `O=S1(=O)CC#CCOc2ccccc2OCC#CC1` [Compound 2.10] yielded a melting point of 176.5 to 177.5 °C.

For `O=S1(=O)CC#CCOCCOCCOCCOCC#CC1` [Compound 2.12], the “cleavage of Form I DNA” value (Form I DNA) was “dose-dependent cleavage”.

`CCOC(=O)c1cccc(CS(=O)(=O)CC#CCO)c1` [Compound 3.3] gave a melting point of 79.5 to 80.5 °C.

`C1#CCOCCOCCOCCOCCOCCOCC#C/C=C\1` [Compound 4.7] gave an IC50 [1] of 68 µM.
